Source: patent US12084521B2, “TLR9 inhibitors to suppress inflammatory response to pathogens” (University Of Maryland, Baltimore, priority 2018, dated 2024)
“Also recorded” adds a separate entry of the source. No end group written: not given here.

Assays:
TLR9 signaling [1] = experiment: ODN 1668-induced cytokine mRNA expression in BMDM (quantitative real time PCR); assay type: cell-based, mouse; settings: BMDM; for inhibition of TLR9 signaling (ODN 1668-induced cytokine mRNA, overall): peptide 10, 20 or 40 μM, ODN 1668 1 μM; for TNFα mRNA expression / IL-10 mRNA expression / IL-12-p40 mRNA expression: peptide 10, 20 or 40 μM 30 min before ODN 1668 (1 μM), normalized to HPRT; for TNFα mRNA expression: 1 hour after stimulation; for IL-10 mRNA expression / IL-12-p40 mRNA expression: 1 hour
Description: The cDNA obtained was amplified with gene-specific primers for mouse HPRT, TNFα, IL-10, IL-12-p40, or IL-6 and Fast SYBR Green™ master mix (Applied Biosystemsm) as previously described.
Mouse BMDMs were incubated in the presence of a 10, 20 or 40 μM decoy peptide for 30 minutes prior to stimulation with ODN 1668 (1 μM). […] Data represent the means±SEM of at least three independent experiments. The statistical significance of changes in cytokine mRNA was determined by a one-way ANOVA test; *p<0.001. Peptides 9R3 and 9R34 have overlapping sequences (see Table 1).
To investigate inhibition of TLR9 signaling by 9R34 analogues, the following work was performed. Mouse BMDMs were incubated in the presence of a 10, 20 or 40 μM decoy peptide for 30 minutes prior to stimulation with ODN 1668 (1 μM). Cytokine mRNA expression was measured 1 hour after ODN 1668 challenge and normalized to the expression of HPRT. See also Table 1. Data represent means±SEM of at least three independent experiments.

myDDosome = settings: BMDM pretreated with CPDP; MyD88 IP, IRAK4 blot
Description: Four million BMDMs per well were plated in 6-well plates and treated with CPDP for 30 minutes prior to stimulation with ODN 1668 for 90 minutes. Cells were lysed in 600 p L of buffer containing 20 mM HEPES (pH 7.4), 150 mM NaCl, 10 mM NaF, 2 mM Na3VO4, 1 mM EDTA, 1 mM EGTA, 0.5% Triton X-100, 0.1 mM DTT, and protease inhibitor cocktail (Roche™). Cell extracts were incubated overnight with 1 μg of anti-mouse MyD88 antibody (AF3109) (R&D Systems™, followed by a 4-hour incubation with 20 μL protein G Sepharose beads (ThermoFisherm Scientific). The beads were then washed 3 times with 500 μL of lysis buffer and boiled in 60 μL of Laemmli sample buffer (Bio-Rad™). Cell extracts were electrophoresed on 10% acrylamide gel by SDS-PAGE and transferred to PVDF membrane (Bio-Rad™). Rabbit anti-MyD88 IgG was purchased from Cell Signaling™. Mouse anti-IRAK4 IgG was obtained from Abcam™. Alkaline phosphatase-conjugated secondary antibodies against mouse and rabbit IgG were purchased from Cell Signaling™. The stabilized substrate for alkaline phosphatase was from Promega™.
TLR stimulation causes formation of myDDosome, a signaling complex composed through interactions of IRAK and MyD88 death domains. To test if peptides inhibit myDDosome formation, MyD88 was immunoprecipitated from lysates of ODN-stimulated BMDM and the precipitates analyzed for IRAK4 presence. BMDM were lysed and lysates immunoprecipitated with anti-MyD88 Ab and immune complexes assessed with anti-IRAK4 Ab 3 hours after cell treatment with ODN 1668.

TLR9 signaling [2] = experiment: Plasma cytokines after i.p. ODN 1668 in mice; assay type: in vivo, C57BL/6J mice; settings: peptide 200 nmol/mouse i.p.; ODN 1668 7.86 nmol/mouse
Description: Systemic cytokine levels were measured in plasma samples obtained 1, 3, and 5 hours after intraperitoneal (i.p.) administration of 7.86 nmol (50 μg) of ODN 1668 or 67 nmol of Pam3C per mouse, using ELISA kits from Biolegend™ Inc. CPDP were dissolved in PBS and administered i.p. at the dose of 200 nmol per mouse 1 hour before administration of a TLR agonist. For survival experiments, mice were sensitized to TLR9 agonists by i.p. injection of 20 mg of D-Gal 30 minutes before administration of peptides or PBS. ODN 1668 was used at the doses of 3.93 or 7.86 nmol/mouse (25 or 50 μg/mouse) 1.5 hours after D-Gal. Animal survival was monitored for 50 hours. All agents were administered i.p. in 500 μL volume of PBS. Animals had free access to food and water during the observation period. All animal experiments were conducted in accordance with the national guidelines for the care and use of laboratory animals under a protocol that was approved by the UMB IACUC.
To test the in vivo efficacy and specificity of 9R34-ΔN, C57BL/6J mice were mock-treated or treated i.p. with a single dose of inhibitory or control peptide (200 nmol/mouse) and challenged with TLR9 agonist ODN 1668 (7.86 nmol/mouse) or TLR2/1 agonist Pam3C (67 nmol/mouse) 1 hour later. Plasma concentrations of TNFα and IL-12-p40 were measured 1, 3, and 5 hours after the challenge. Both TLR agonists increased concentrations of TNFα and IL-12-p40 in 1 hour samples from below the limit of detection to about 1.2 and about 6 ng/mL in the case of ODN 1668, and to 0.12 ng/mL and 1 ng/mL after treatment with Pam3C.
Plasma TNFα and IL-12-p40 levels following intraperitioneal administration of ODN 1668 to C57Bl/6J mice in peptide-pretreated and control mice are shown in FIG. 14A and FIG. 14B. Data shown in these figures represent the means±SEM obtained in at least three independent experiments. The statistical significance of changes in cytokine concentrations was determined by a two-way ANOVA test; *p<0.001.

TLR9 signaling [3] = experiment: ODN 1668-induced cytokine secretion in BMDM supernatants (ELISA); assay type: cell-based, mouse; settings: peptide 40 μM; 5 hour supernatants; ODN 1668 1 μM
Description: Mouse TNFα and IL-12-p40 concentrations were measured in supernatants using ELISA kits from Biolegend™, Inc.
BMDMs were incubated in the presence of a decoy peptide for 30 minutes prior to stimulation with ODN 1668 (1 μM). The statistical significance of changes in cytokine levels was determined by the one-way ANOVA test; *p<0.01.

| Sequence | inhibition of TLR9 signaling (ODN 1668-induced cytokine mRNA, overall) (TLR9 signaling [1]) | TNFα mRNA expression (TLR9 signaling [1]) | IL-12-p40 mRNA expression (TLR9 signaling [1]) | further results |
| --- | --- | --- | --- | --- |
| LEERDWLPGKTLFE (Synthetic peptide 9R4) | did not inhibit | – | – | – |
| DKTQSAVADWVYNE (Synthetic peptide 9R2) | did not inhibit TLR9 | – | – | ODN 1668-induced myDDosome formation (myDDosome): not; ODN 1668-induced plasma cytokine levels (TNFα, IL-12-p40) (TLR9 signaling [2]): did not significantly reduce |
| GRWALRLCLE (Synthetic peptide 9R34-delta-C) [Peptide 9R34-ΔC] | as potent as the parent peptide | – | – | – |
| GRWALRLSLEERD (Synthetic peptide 9R34-C/S) | as potent as the parent peptide | – | – | – |
| RGQLEECRGRWALR (also: antennapedia vector attached) [Peptide 9R3, tested as CPDP with antennapedia vector] | inhibit TLR9 signaling | significantly suppressed | significantly suppressed | IL-10 mRNA expression (TLR9 signaling [1]): significantly suppressed |
| RYVRLRQRLCRQS (Synthetic peptide 9R9) | inhibit TLR9 signaling; also recorded: inhibited signaling weaker than 9R34 or 9R11 | significantly suppressed | significantly suppressed | IL-10 mRNA expression (TLR9 signaling [1]): significantly suppressed; production/secretion of TNFα (TLR9 signaling [3]): did not inhibit significantly; secretion of IL-12-p40 (TLR9 signaling [3]): reduced secretion |
| SPDGRRSRYVR (Synthetic peptide 9R8) | some inhibitory activity | – | – | – |
| GRWALRACAEERD (Synthetic peptide 9R34-delta-L2) [Peptide 9R34-ΔL2] | inhibited TLR9 signaling less potently | – | – | – |
| HTDRVSGLLRASFL (Synthetic peptide 9R6) | some inhibitory activity; also recorded: weakly inhibited | partial activity | partial activity | – |
| GRWALRACLEERD (Synthetic peptide 9R34-delta-L1) [Peptide 9R34-ΔL1] | inhibited TLR9 signaling less potently | – | – | – |
